Assay results published in patent US12043612B2, “Methods of manufacturing a bifunctional compound, ultrapure forms of the bifunctional compound, and dosage forms comprising the same” (Arvinas Operations, Inc., priority 2020, dated 2024).
In brackets after ≈: the same amount, converted by molar mass. Read-outs that look alike come from different tables or passages of the source.

Assays:
[1] = Solubility of Compound A in solvents at 24° C. ± 3° C., 24 h; format: physicochemical; settings: organic solvent or mixture, thermodynamic from solid
Method: (§1) This batch was prepared for use in the 28-day good laboratory practice (GLP) toxicology studies using the same synthetic scheme and processing employed in preparation of active pharmaceutical ingredient (API) to be used in the clinical drug product.

[2] = pKa of Compound A; format: physicochemical
Method: as §1

[3] = pH-Solubility Profile in buffers and simulated intestinal fluids; format: physicochemical; settings: read-out: pH-Solubility Profile, Concentration
Method: as §1

[4] = test system: MDCK cells; test: In vitro permeability in MDCK cells; format: in vitro ADME
[5] = Glass transition and recrystallization temperature of amorphous solids; format: physicochemical
Method: Thus, while crystals of Compound A are quite stable, there is a significant barrier to transforming to a crystalline state from an amorphous form. Indeed, a ramped temperature increase of a partially-crystalline sample does eventually lead to a recrystallization event, but not until a temperature of 200-220° C. is achieved. […] As discussed below, this robust resistance to crystallization is preserved even in the presence of water.
The amorphous form of pure Compound A is robust with a high Tg and even higher recrystallization temperature. The glass transition temperature does decrease under the plasticizing conditions of high humidity. However, the value is still well above the commonly applied 40-50° C. difference between Tg and any temperature the clinical presentation will encounter.

[6] = Solvent screen for dissolution of crystalline Compound A; format: physicochemical
Method: A screen was conducted to determine the optimum solvent for use purifying Compound A and for dissolution of crystalline Compound A prior to spray drying.

[7] = BCS designation; settings: low solubility, low permeability
[8] = Oral bioavailability and hepatic clearance with colloid-forming, precipitation-resistant solutions; format: in vivo
[9] = Membrane flux experiment (donor/receiver compartments, SIF bile salts)
Method: A membrane flux experiment was conducted in which a fixed amount of compound was introduced into the donor compartment at various concentrations of the SIF bile salts, and appearance of drug was monitored on the receiver side.

[10] = Rat pharmacokinetic studies with solutions and spray-dried dispersions; settings: rats; solutions containing solubilizers and precipitation inhibitors

## N#Cc1ccc(O[C@H]2CC[C@H](NC(=O)c3ccc(N4CCC(CN5CCN(c6cc7c(cc6F)C(=O)N(C6CCC(=O)NC6=O)C7=O)CC5)CC4)nn3)CC2)cc1Cl (some centres unmarked) [Compound A, N-[(1r,4r)-4-(3-chloro-4-cyanophenoxy)cyclohexyl]-6-[4-({4-[2-(2,6-dioxopiperidin-3-yl)-6-fluoro-1,3-dioxo-2,3-dihydro-1H-isoindol-5-yl]piperazin-1-yl}methyl)piperidin-1-yl]pyridazine-3-carboxamide]
[1]; Acetonitrile, read-out: Solubility, Conc. (mg/mL), 24 h
  solubility at 24 h: 0.79 mg/mL (≈ 973 µM)
[1]; Dichloromethane, read-out: Solubility, Conc. (mg/mL), 24 h
  solubility at 24 h: 25.1 mg/mL (≈ 30900 µM)
[1]; Dichloromethane/methanol, read-out: Solubility, Conc. (mg/mL), 24 h
  solubility at 24 h: 100 mg/mL (≈ 123000 µM)
[1]; Ethanol, read-out: Solubility, Conc. (mg/mL), 24 h
  solubility at 24 h: 0.08 mg/mL (≈ 98.5 µM)
[1]; Ethyl acetate, read-out: Solubility, Conc. (mg/mL), 24 h
  solubility at 24 h: 0.2 mg/mL (≈ 246 µM)
[1]; Methanol, read-out: Solubility, Conc. (mg/mL), 24 h
  solubility at 24 h: 0.29 mg/mL (≈ 357 µM)
[1]; Polyethylene glycol-300, read-out: Solubility, Conc. (mg/mL), 24 h
  solubility at 24 h: 2.8 mg/mL (≈ 3450 µM)
[1]; Propylene glycol, read-out: Solubility, Conc. (mg/mL), 24 h
  solubility at 24 h: 0.75 mg/mL (≈ 923 µM)
[2]
  pKa1: pKa1 = 6.8
  pKa2: pKa2 = 2.7
[3]; aqueous buffer, pH 3 200 mM citrate buffer, pH of solution 3.0
  solubility: 15 µg/mL (≈ 18.5 µM)
[3]; aqueous buffer, pH 5 200 mM citrate buffer, pH of solution 5.0
  solubility: 0.5 µg/mL (≈ 0.616 µM)
[3]; aqueous buffer, pH 6.5 200 mM citrate buffer, pH of solution 6.5
  solubility: 0.3 µg/mL (≈ 0.369 µM)
[3]; pH 5, fessif, Fed state simulated intestinal fluid, pH of solution 5.0
  solubility: 22 µg/mL (≈ 27.1 µM)
[3]; pH 6.5, fassif, Fasted state simulated intestinal fluid, pH of solution 6.5
  solubility: 1 µg/mL (≈ 1.23 µM)
[3]; simulated gastric fluid, pH 1.2 HCl (aq), pH of solution 1.2
  solubility: 397 µg/mL (≈ 489 µM)
[4]
  in vitro permeability in MDCK cells: low
[5]
  glass transition temperature (Tg): 146 °C
[5]; ramped temperature increase of a partially-crystalline sample
  temperature of recrystallization event: 200-220 °C
[6]; DCM:Acetone, 53:47% wt., Solids 0.82 wt %, RT
  Dissolution: Not dissolved
[6]; DCM:Ethanol, 92:8% wt., Solids 2.26 wt %, RT
  Dissolution: Dissolved
[6]; DCM:Methanol, 70:30% wt., Solids 3.2 wt %, RT
  Dissolution: Turbid solution
[6]; DCM:Methanol, 80:20% wt., Solids 3.4 wt %, RT
  Dissolution: Dissolved
[6]; DCM:Methanol, 90:10% wt., Solids 5 wt %, RT
  Dissolution: Dissolved
[6]; DCM:Methanol, 90:10% wt., Solids 6.6 wt %, Temperature 30
  Dissolution: Dissolved
[6]; DCM:Methanol, 90:10% wt., Solids 8.1 wt %, Temperature 35
  Dissolution: Dissolved
[6]; DCM:Methanol, 95:5 wt. %., Solids 4.2 wt %, RT
  Dissolution: Dissolved
[6]; DCM, Solids 0.6 wt %, RT
  Dissolution: Not dissolved
[6]; Methanol, Solids 2.8 wt %, RT
  Dissolution: Not dissolved
[6]; THF, Solids 0.7 wt %, RT
  Dissolution: Not dissolved
[7]
  BCS designation: BCS IV
[8]; colloid-forming, precipitation-resistant solutions administered
  oral bioavailability: modest
[8]; in vivo
  hepatic clearance: low
[9]; SIF 0 mg/mL
  Flux (μg-min^−1-cm^−2): 0.02 μg-min^−1-cm^−2
[9]; SIF 5 mg/mL
  Flux (μg-min^−1-cm^−2): 0.09 μg-min^−1-cm^−2
[9]; SIF 10 mg/mL
  Flux (μg-min^−1-cm^−2): 0.14 μg-min^−1-cm^−2
[9]; SIF 20 mg/mL
  Flux (μg-min^−1-cm^−2): 0.20 μg-min^−1-cm^−2
[10]
  exposure versus dose: Dose-linear exposure escalation
